According to PubChem BioAssay (NCI):
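In this assay, cells in 96-well plates receive the compound at five concentrations for 48 hours. Endpoints are linearly interpolated between the surrounding concentrations. Definition used: TGI = concentration required for complete inhibition of growth.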

Key:
Assay in all cases: inhibition of tumour cell growth, NCI panel, 48 h
[1] = tested on: 786-0 renal
[2] = tested on: A498 renal
[3] = tested on: A549 NSCLC
[4] = tested on: ACHN renal
[5] = tested on: CAKI-1 renal
[6] = tested on: CCRF-CEM leukemia
[7] = tested on: COLO 205 colon
[8] = tested on: DLD-1 colon
[9] = tested on: DMS 273 small cell lung
[10] = tested on: EKVX NSCLC
[11] = tested on: HCC-2998 colon
[12] = tested on: HCT-116 colon
[13] = tested on: HCT-15 colon
[14] = tested on: HL-60(TB) leukemia
[15] = tested on: HOP-62 NSCLC
[16] = tested on: HOP-92 NSCLC
[17] = tested on: HT29 colon
[18] = tested on: IGROV1 ovarian
[19] = tested on: K-562 leukemia
[20] = tested on: KM12 colon
[21] = tested on: KM20L2 colon
[22] = tested on: LOX IMVI melanoma
[23] = tested on: LXFL 529 NSCLC
[24] = tested on: M14 melanoma
[25] = tested on: M19-MEL melanoma
[26] = tested on: MALME-3M melanoma
[27] = tested on: MOLT-4 leukemia
[28] = tested on: NCI-H226 lung
[29] = tested on: NCI-H23 lung
[30] = tested on: NCI-H460 lung
[31] = tested on: NCI-H522 lung
[32] = tested on: OVCAR-3 ovarian
[33] = tested on: OVCAR-4 ovarian
[34] = tested on: OVCAR-5 ovarian
[35] = tested on: OVCAR-8 ovarian
[36] = tested on: RPMI-8226 leukemia
[37] = tested on: SF-268 CNS
[38] = tested on: SF-295 CNS
[39] = tested on: SF-539 CNS
[40] = tested on: SK-MEL-2 melanoma
[41] = tested on: SK-MEL-28 melanoma
[42] = tested on: SK-MEL-5 melanoma
[43] = tested on: SK-OV-3 ovarian
[44] = tested on: SN12C renal
[45] = tested on: SNB-19 CNS
[46] = tested on: SNB-75 CNS
[47] = tested on: SW-620 colon
[48] = tested on: TK-10 renal
[49] = tested on: U251 CNS
[50] = tested on: UACC-257 melanoma
[51] = tested on: UACC-62 melanoma
[52] = tested on: UO-31 renal
[53] = tested on: XF 498 CNS
[54] = tested on: BT-549 breast
[55] = tested on: DU-145 prostate
[56] = tested on: HS 578T breast
[57] = tested on: MCF7 breast
[58] = tested on: MDA-MB-231 breast
[59] = tested on: MDA-MB-435
[60] = tested on: MDA-N
[61] = tested on: NCI/ADR-RES ovarian
[62] = tested on: PC-3 prostate
[63] = tested on: RXF 393 renal
[64] = tested on: SR leukemia
[65] = tested on: T-47D breast

Measured: TGI

Cc1cc(Cl)ccc1C1OC(=O)c2c1ccc1ccccc21 (stereo not given)
not listed: [54] | [55] | [56] | [57] | [58] | [59] | [60] | [61] | [62] | [63] | [64] | [65]
> 100 µM: all other assays above

CC1=NN(C(=O)CC(=O)Nc2cccc(Cl)c2)C(=O)C1N=Nc1ccc(C(=O)O)cc1 (stereo not given)
not listed: [8] | [9] | [21] | [23] | [25] | [28] | [43] | [53]
> 100 µM: all other assays above
